Series [1] deals with T1, Cytochrome P450 3A5 (Homo sapiens, UniProt P20815). In words: Activity of human recombinant CYP3A5 assessed as enzyme-mediated drug metabolism at 10 uM after 120 mins by LC-MS/MS analysis. In kind it is ADME. As to conditions: 2 h.
The target in a further series is Cytochrome P450 4F12 (Homo sapiens, UniProt Q9HCS2). Nature of the series: Activity of human recombinant CYP4F12 assessed as enzyme-mediated 2-hydroxyethyl (1R,3aR,4aR,6R,8aR,9S,9aS)-9-((E)-2-(5-(3-fluorophenyl)pyridin-2-yl)vinyl)-1-methyl-3-oxododecahydronaphtho[2,3-c]furan-6-ylcarbamate formation at 25 uM after 120 mins by LC-MS/MS analysis in presence of NADPH. As to conditions: 2 h. It counts as ADME.
Sequence of Cytochrome P450 4F12 (Q9HCS2 whole entry): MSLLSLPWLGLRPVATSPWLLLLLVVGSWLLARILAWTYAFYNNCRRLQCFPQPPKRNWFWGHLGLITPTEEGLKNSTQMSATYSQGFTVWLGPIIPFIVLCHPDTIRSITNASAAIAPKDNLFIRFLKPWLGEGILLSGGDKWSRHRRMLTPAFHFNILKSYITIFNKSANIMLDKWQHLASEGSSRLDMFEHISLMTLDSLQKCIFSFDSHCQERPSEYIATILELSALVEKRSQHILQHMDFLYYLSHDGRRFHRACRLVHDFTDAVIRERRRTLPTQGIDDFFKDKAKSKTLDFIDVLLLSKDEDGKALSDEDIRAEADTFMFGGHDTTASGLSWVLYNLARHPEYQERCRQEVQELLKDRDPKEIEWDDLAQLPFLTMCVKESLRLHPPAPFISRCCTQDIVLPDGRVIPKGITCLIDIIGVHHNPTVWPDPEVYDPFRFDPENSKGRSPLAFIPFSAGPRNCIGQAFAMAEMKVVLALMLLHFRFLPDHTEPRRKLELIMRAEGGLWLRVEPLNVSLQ

For another series, the target named is Cytochrome P450 3A4 (Homo sapiens, UniProt P08684). In words: Activity of human recombinant CYP3A4 assessed as enzyme-mediated drug metabolism at 10 uM after 120 mins by LC-MS/MS analysis. It counts as ADME. As to conditions: 2 h.
Sequence of Cytochrome P450 3A4 (P08684 whole entry): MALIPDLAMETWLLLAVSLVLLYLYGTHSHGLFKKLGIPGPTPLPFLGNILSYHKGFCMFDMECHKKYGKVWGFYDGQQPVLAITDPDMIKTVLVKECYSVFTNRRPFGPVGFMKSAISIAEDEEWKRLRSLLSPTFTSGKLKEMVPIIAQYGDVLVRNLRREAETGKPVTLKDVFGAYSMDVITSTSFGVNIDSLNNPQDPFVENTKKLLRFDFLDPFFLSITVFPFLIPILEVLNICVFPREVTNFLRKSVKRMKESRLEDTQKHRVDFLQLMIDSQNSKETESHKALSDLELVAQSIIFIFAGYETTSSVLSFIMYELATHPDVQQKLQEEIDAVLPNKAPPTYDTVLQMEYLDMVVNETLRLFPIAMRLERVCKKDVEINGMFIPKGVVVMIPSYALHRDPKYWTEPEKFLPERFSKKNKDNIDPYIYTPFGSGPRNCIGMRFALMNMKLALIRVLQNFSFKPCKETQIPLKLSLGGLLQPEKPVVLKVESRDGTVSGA
A further series has as its target Cytochrome P450 1B1 (Homo sapiens, UniProt Q16678). In words: Activity of human recombinant CYP1B1 assessed as enzyme-mediated 2-hydroxyethyl (1R,3aR,4aR,6R,8aR,9S,9aS)-9-((E)-2-(5-(3-fluorophenyl)pyridin-2-yl)vinyl)-1-methyl-3-oxododecahydronaphtho[2,3-c]furan-6-ylcarbamate formation at 25 uM after 120 mins by LC-MS/MS analysis in presence of NADPH. In kind it is ADME. The note with it: 2 h.

Series [2] addresses T2, Cytochrome P450 2C19 (Homo sapiens, UniProt P33261). In words: Activity of human recombinant CYP2C19 assessed as enzyme-mediated 2-hydroxyethyl (1R,3aR,4aR,6R,8aR,9S,9aS)-9-((E)-2-(5-(3-fluorophenyl)pyridin-2-yl)vinyl)-1-methyl-3-oxododecahydronaphtho[2,3-c]furan-6-ylcarbamate formation at 25 uM after 120 mins by LC-MS/MS analysis in presence of NADPH. In kind it is ADME. The note with it: 2 h.

The target in the next series is Cytochrome P450 2C8 (Homo sapiens, UniProt P10632). Nature of the series: Activity of human recombinant CYP2C8 assessed as enzyme-mediated 2-hydroxyethyl (1R,3aR,4aR,6R,8aR,9S,9aS)-9-((E)-2-(5-(3-fluorophenyl)pyridin-2-yl)vinyl)-1-methyl-3-oxododecahydronaphtho[2,3-c]furan-6-ylcarbamate formation at 25 uM after 120 mins by LC-MS/MS analysis in presence of NADPH. The note with it: 2 h. It counts as ADME.
Sequence of Cytochrome P450 2C8 (P10632 whole entry): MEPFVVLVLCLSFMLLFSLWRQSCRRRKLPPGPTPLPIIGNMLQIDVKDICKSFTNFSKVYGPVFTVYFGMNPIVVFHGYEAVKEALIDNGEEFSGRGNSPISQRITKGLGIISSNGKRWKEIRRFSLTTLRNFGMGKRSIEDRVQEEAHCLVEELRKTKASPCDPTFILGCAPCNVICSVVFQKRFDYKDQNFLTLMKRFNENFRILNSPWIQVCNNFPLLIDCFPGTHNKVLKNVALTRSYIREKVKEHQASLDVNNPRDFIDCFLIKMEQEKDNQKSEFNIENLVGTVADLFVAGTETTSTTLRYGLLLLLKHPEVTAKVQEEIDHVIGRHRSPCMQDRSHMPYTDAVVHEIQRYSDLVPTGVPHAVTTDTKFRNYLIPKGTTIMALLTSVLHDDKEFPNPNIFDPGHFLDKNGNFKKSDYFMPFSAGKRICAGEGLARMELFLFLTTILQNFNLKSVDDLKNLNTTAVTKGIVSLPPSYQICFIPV

In series [3] the target is T2, Cytochrome P450 2C19. Nature of the series: Activity of human recombinant CYP2C19 assessed as enzyme-mediated drug metabolism treated with 25 uM vorapaxar after 120 mins by LC-MS/MS analysis in presence of NADPH. In kind it is ADME. The note with it: 2 h.
The target in the next series is T3, Cytochrome P450 4F3 (Homo sapiens, UniProt Q08477).
T3 sequence (Q08477 whole entry): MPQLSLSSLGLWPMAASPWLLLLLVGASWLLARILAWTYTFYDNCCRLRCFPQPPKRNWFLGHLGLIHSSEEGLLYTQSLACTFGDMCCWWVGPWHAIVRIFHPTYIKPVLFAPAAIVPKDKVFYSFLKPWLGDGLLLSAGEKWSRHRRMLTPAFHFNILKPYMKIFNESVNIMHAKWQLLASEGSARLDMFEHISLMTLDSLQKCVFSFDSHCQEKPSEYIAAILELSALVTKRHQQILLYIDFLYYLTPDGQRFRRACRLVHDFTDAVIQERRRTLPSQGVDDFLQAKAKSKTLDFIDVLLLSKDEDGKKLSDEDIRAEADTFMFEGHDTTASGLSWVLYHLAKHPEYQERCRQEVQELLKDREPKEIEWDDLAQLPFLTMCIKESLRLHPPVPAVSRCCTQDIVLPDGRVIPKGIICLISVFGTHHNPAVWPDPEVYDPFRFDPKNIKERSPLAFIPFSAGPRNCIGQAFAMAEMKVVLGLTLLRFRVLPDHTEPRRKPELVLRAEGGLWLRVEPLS
Nature of the series: Activity of human recombinant CYP4F3B assessed as enzyme-mediated drug metabolism treated with 25 uM vorapaxar after 120 mins by LC-MS/MS analysis in presence of NADPH. In kind it is ADME. The note with it: 2 h.

The target in series [4] is T1, Cytochrome P450 3A5. In words: Activity of human recombinant CYP3A5 assessed as enzyme-mediated drug metabolism treated with 25 uM vorapaxar after 120 mins by LC-MS/MS analysis in presence of NADPH. It counts as ADME. The note with it: 2 h.
In series [5] the test system is Liver microsome. In words: Drug metabolism in human liver microsomes assessed as 2-hydroxyethyl (1R,3aR,4aR,6R,8aR,9S,9aS)-9-((E)-2-(5-(3-fluorophenyl)pyridin-2-yl)vinyl)-1-methyl-3-oxododecahydronaphtho[2,3-c]furan-6-ylcarbamate formation at 25 uM after 120 mins by LC-MS/MS analysis in presence of astemizole. It counts as ADME. As to conditions: 2 h. In general terms: Liver microsomes are a subcellular fraction often used to study metabolism.

Series [6] has as its system Liver microsome. Nature of the series: Drug metabolism in human liver microsomes assessed as (3R,3aS,4S,4aR,7R,8aR,9aR)-7-amino-4-((E)-2-(5-(3-fluorophenyl)pyridin-2-yl)vinyl)-3-methyldecahydronaphtho[2,3-c]furan-1(3H)-one formation at 10 to 25 uM after 120 mins by LC-MS/MS analysis in presence of omeprazole. In kind it is ADME. The note with it: 2 h.
For a further series, the target named is CYP1A1 (Homo sapiens, UniProt P04798). In words: Activity of human recombinant CYP1A1 assessed as enzyme-mediated drug metabolism at 10 uM after 120 mins by LC-MS/MS analysis in presence of NADPH. It counts as ADME. The note with it: read-out: Compound recovery.
Sequence of CYP1A1 (P04798 whole entry): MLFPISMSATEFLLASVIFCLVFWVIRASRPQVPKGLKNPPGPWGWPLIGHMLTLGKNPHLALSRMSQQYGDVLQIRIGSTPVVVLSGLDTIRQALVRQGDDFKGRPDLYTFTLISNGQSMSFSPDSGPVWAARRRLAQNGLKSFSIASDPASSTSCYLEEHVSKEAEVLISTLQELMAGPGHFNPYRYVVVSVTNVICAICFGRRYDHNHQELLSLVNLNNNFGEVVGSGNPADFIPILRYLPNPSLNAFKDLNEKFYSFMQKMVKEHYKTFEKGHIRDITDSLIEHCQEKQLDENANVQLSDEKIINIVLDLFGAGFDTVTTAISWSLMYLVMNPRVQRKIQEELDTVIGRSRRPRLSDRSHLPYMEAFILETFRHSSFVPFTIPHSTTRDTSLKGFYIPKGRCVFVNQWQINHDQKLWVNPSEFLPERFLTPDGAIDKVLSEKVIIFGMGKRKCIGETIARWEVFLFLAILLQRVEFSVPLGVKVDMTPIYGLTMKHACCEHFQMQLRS
The target of a further series is CYP2B6 (Homo sapiens, UniProt P20813). Nature of the series: Activity of human recombinant CYP2B6 assessed as enzyme-mediated drug metabolism at 10 uM after 120 mins by LC-MS/MS analysis in presence of NADPH. It counts as ADME. As to conditions: read-out: Compound recovery.
Sequence of CYP2B6 (P20813 whole entry): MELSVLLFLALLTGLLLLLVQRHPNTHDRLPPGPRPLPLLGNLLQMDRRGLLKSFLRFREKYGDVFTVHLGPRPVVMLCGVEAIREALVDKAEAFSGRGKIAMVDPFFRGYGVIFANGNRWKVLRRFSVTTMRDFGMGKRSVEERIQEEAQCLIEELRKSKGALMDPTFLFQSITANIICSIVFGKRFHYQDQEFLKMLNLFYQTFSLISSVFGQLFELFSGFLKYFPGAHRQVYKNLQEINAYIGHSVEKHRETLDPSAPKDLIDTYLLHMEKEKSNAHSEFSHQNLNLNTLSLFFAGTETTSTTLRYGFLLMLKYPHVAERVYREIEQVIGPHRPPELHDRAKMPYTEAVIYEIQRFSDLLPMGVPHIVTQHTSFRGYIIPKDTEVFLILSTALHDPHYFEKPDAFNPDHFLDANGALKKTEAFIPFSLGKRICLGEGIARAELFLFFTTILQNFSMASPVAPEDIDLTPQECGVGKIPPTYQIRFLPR
In another series the target is CYP1A2 (Homo sapiens, UniProt P05177). In words: Activity of human recombinant CYP1A2 assessed as enzyme-mediated drug metabolism at 10 uM after 120 mins by LC-MS/MS analysis in presence of NADPH. As to conditions: read-out: Compound recovery. It counts as ADME.
Sequence of CYP1A2 (P05177 whole entry): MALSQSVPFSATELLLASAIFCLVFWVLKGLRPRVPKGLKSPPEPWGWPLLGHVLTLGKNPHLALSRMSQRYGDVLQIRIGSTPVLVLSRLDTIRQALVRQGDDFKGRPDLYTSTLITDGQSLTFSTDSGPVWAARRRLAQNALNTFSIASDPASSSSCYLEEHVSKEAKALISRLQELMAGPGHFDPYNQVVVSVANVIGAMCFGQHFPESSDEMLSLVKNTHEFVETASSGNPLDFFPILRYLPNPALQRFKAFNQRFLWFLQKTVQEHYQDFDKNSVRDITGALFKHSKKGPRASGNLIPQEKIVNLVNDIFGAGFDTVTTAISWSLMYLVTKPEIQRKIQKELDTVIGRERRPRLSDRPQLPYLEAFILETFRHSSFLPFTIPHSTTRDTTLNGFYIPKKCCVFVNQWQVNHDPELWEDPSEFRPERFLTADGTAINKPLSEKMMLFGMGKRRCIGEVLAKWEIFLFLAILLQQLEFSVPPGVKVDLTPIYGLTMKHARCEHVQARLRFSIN
Series [7] in a line: Drug metabolism in insect microsomes at 10 uM after 120 mins by LC-MS/MS analysis in presence of NADPH. It counts as ADME, Microsome. The note with it: read-out: Compound recovery.
A further series concerns the target T4, Cytochrome P450 2J2 (Homo sapiens, UniProt P51589).
T4 sequence (P51589 whole entry): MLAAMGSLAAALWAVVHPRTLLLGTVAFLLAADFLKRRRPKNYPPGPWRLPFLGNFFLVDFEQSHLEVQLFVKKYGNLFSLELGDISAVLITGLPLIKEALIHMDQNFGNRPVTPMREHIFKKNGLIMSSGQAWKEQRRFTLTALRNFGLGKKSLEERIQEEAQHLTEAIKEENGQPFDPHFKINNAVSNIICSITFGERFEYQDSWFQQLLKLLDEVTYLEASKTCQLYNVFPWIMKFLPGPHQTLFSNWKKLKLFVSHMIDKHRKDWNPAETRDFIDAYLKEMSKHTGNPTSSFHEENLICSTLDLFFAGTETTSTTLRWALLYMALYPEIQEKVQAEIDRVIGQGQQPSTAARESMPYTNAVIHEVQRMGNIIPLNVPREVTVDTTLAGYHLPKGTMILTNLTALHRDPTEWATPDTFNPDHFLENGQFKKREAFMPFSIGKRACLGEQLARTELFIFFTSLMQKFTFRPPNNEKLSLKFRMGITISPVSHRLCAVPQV
In words: Drug metabolism assessed as human recombinant CYP2J2-mediated 2-hydroxyethyl (1R,3aR,4aR,6R,8aR,9S,9aS)-9-((E)-2-(5-(3-fluorophenyl)pyridin-2-yl)vinyl)-1-methyl-3-oxododecahydronaphtho[2,3-c]furan-6-ylcarbamate formation at 25 uM after 120 mins by LC-MS/MS analysis in presence of ketoconazole. In kind it is ADME. The note with it: recombinant enzyme, 2 h.

T1 sequence (P20815 whole entry): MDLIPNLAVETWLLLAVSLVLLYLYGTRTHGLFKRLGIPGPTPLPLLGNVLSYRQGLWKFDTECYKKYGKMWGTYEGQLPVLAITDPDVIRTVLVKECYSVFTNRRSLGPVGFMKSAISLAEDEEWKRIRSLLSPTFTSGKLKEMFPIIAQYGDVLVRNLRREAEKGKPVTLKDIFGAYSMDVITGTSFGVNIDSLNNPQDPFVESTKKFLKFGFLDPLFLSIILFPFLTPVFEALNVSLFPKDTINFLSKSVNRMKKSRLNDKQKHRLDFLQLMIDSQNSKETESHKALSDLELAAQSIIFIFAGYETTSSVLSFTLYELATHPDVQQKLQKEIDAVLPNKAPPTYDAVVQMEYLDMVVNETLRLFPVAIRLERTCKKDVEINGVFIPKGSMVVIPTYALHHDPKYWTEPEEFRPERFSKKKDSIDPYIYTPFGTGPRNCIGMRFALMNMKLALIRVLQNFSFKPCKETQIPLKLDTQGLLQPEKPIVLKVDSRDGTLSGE
T2 sequence (P33261 whole entry): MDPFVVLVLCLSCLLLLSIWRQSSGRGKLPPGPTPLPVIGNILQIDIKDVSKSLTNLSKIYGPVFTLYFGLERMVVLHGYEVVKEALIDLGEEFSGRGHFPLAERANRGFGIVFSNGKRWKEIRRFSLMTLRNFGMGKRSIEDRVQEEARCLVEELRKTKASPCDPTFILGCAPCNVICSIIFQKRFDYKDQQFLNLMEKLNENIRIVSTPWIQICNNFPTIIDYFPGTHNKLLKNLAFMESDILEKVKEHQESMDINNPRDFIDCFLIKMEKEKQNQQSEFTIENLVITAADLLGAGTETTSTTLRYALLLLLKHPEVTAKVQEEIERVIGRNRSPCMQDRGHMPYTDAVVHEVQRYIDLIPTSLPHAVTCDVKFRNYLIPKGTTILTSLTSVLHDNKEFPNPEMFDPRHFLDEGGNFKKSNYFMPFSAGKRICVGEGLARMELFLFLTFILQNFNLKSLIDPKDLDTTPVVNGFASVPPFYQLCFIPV
Sequence of Cytochrome P450 1B1 (Q16678 whole entry): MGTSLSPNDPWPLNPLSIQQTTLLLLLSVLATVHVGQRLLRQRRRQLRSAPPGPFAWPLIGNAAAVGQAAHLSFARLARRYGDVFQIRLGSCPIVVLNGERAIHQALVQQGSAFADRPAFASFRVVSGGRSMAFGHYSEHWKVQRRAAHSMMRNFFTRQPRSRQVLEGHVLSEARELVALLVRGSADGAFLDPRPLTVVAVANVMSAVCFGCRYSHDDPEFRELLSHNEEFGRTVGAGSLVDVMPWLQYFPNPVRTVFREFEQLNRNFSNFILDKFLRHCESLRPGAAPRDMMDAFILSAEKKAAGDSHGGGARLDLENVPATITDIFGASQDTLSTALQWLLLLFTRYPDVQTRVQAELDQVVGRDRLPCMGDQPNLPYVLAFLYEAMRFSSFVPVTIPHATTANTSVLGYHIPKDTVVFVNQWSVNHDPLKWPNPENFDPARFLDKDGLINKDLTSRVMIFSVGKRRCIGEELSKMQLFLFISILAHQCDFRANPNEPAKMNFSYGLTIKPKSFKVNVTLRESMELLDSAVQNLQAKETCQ

For the compound `CCOC(=O)N[C@@H]1CC[C@@H]2[C@@H](C1)C[C@H]1C(=O)O[C@H](C)[C@H]1[C@H]2/C=[14CH]/c1ccc(-c2cccc(F)c2)cn1`, the Drug metabolism entry on Cytochrome P450 3A5 [1] is recorded as “metabolite_not_detected”; at Cytochrome P450 4F12, “metabolite_detected”; at Cytochrome P450 3A4, “metabolite_not_detected”; on Cytochrome P450 1B1, “metabolite_detected”; at Cytochrome P450 2C19 [2] it was “metabolite_detected”; at Cytochrome P450 2C8, “metabolite_detected”.

Regarding `C[C@H]1OC(=O)[C@@H]2C[C@@H]3C[C@H](NC(=O)OCCO)CC[C@H]3[C@H](/C=C/c3ccc(-c4cccc(F)c4)cn3)[C@H]12`, the Drug metabolism entry at Cytochrome P450 2C19 [3], at Cytochrome P450 4F3 and at Cytochrome P450 3A5 [4] was “metabolite_detected” each time.

For the compound `CCOC(=O)N[C@@H]1CC[C@@H]2[C@@H](C1)C[C@H]1C(=O)O[C@H](C)[C@H]1[C@H]2/C=C/c1ccc(-c2cccc(F)c2)cn1` [VORAPAXAR], the values for the Drug metabolism entry with Liver microsome [5], with Liver microsome [6] and at Cytochrome P450 2J2 were “metabolite_not_detected”, “metabolite_detected” and “metabolite_not_detected”, respectively. The remaining at 2 h, 10 µM is 96.3% on CYP1A1, 97.7% on CYP2B6, 98.3% on CYP1A2 and 98.7% in series [7].

(Values after ChEMBL document CHEMBL3526033, “Identification of human liver cytochrome P450 enzymes involved in the metabolism of SCH 530348 (Vorapaxar), a potent oral thrombin protease-activated receptor 1 antagonist” (Drug Metab Dispos, 2011).)
